Results published in patent US5981541A, “Substituted heterocycles as anti-tumor agents” (Rutgers, The State University of New Jersey, priority 1997, dated 1999).

How the values were obtained:
[1] = molecular target: T1, human topoisomerase I (Homo sapiens, UniProt P11387); test: Topo I-mediated DNA cleavage assay; format: biochemical; settings: concentration relative to camptothecin (CPT = 1) producing the same cleavage on plasmid DNA in the presence of human topoisomerase I
T1 construct: 15 amino acid fusion from pET-11a vector (N); made in house; host or cells: E. coli BL21(DE3)
T1 sequence (P11387 1-765): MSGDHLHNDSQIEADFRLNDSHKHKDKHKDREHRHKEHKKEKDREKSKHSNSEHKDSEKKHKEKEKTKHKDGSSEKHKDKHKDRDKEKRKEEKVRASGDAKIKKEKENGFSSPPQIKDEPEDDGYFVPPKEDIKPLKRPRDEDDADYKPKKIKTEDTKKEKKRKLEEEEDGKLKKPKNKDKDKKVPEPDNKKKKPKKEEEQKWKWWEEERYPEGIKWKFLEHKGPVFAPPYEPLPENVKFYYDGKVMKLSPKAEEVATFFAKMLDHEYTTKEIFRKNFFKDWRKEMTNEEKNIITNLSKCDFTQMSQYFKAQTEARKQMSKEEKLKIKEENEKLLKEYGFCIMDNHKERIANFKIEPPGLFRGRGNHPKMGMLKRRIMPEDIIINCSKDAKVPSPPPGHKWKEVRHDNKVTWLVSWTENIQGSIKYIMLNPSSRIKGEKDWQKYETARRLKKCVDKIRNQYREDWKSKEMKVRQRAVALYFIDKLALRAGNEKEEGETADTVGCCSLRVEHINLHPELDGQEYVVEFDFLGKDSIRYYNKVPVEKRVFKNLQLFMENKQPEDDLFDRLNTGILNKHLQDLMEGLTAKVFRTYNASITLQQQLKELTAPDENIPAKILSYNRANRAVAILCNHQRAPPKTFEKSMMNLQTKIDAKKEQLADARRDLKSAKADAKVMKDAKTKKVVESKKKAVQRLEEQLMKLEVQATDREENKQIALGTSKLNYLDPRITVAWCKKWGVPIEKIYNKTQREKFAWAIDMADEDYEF
Source text: To obtain large quantity of human topoisomerase I, the human topoisomerase I cDNA was cloned into the pET-11a vector, in which transcription of the cDNA is under the control of the inducible T7 promoter (Studier et al., Methods in Enzymol., Vol. 185:60-89, San Diego: Academic Press (1990)). Briefly, a 3.4 kb DNA fragment containing the entire coding sequence of human topoisomerase I and approximately 1 kb of untranslated region downstream of the stop codon was isolated from the plasmid YCpGAL1-hTOP1 (Bjornsti et al., Cancer Res. 49:6318-6323 (1989)) by cutting at the BamHI and EcoRI sites. The vector pET-11a was cut with the same restriction enzymes, dephosphorylated and ligated to the insert in the proper reading frame downstream of the vector cloning site. […] Since the translational start in pET is positioned at an upstream NdeI site, the expressed topoisomerase I has a 15 amino acid fusion at its N-terminus. pET1B was then transformed into E. coli BL21 (DE3), and, upon induction with 0.4 mM IPTG for 1 hour, the bacterial lysate was analyzed by 10% SDS-PAGE. […] Briefly, E. coli cells were lysed by repeated sonic bursts. The sonic extract was made in 1 M NaCl and 6% polyethylene glycol (PEG) to remove nucleic acids. The PEG supernatant was chromatographed directly on a hydroxyapatite column. […] The eluted enzyme was dialyzed against 50% glycerol, 30 mM potassium phosphate (pH 7.0), 1 mM dithiothreitol (DTT) and 0.1 mM EDTA and stored at -20° C.
(§1) Cleavage assays for the recombinant topoisomerases I and calf thymus topoisomerases I and II were done as described (Liu et al., J. Biol. Chem. 258:15365-15370 (1983)). The plasmid YEpG DNA used for the cleavage assays was prepared and labeled at its 3'-end using the published procedures.

[2] = test system: camptothecin-resistant CPT-K5 cells; test: MTT-microtiter plate tetrazolinium cytotoxicity assay (MTA), CPT-K5; format: cell-based, human; settings: Homo sapiens, CPT-K5, 96 h, read-out: Cytotoxicity IC50, CPT-K5
Experimental: (§2) The IC50 of the drugs tested were determined by the MTT-microtiter plate tetrazolinium cytotoxicity assay (MTA) (Mosmann, T., J. Immunol. Methods 65:55-63 (1983); Denizot et al., J. Immunol. Methods 89:271-277 (1986)). Human lymphoblast RPMI 8402 cells and their camptothecin-resistant CPT-K5 cells (Andoh et al., Proc. Natl. Acad. Sci., USA 84:5565-5569 (1987)) were kindly provided by Dr. Toshiwo Andoh (Aichi Cancer Center Research Institute, Nagoya, Japan). The cell lines A2780 and its camptothecin-resistant derivative CPT-2000 were a generous gift of Dr. Jaulang Hwang (Institute of Molecular Biology, Academia sinica, Taiwan). Cells (2000 cells/well, seeded in […] growth medium) were grown in suspension at 37° C. in 5% CO2 and maintained by regular passage in RPMI medium supplemented with 10% heat inactivated fetal bovine serum, L-glutamine (2 mM), penicillin (100 U/mi), and streptomycin (0.1 mg/ml). The cells were exposed continuously for 4 days to drug concentrations ranging from 100 ug/ml to 1.0 ng/ml in ten fold dilutions, and assayed at the end of the fourth day. Each concentration and the no drug control were repeated at least twice in 6 replica wells. The results were plotted and the IC50 then measured. The drug sensitive human epidermoid carcinoma KB 3-1 cell line and its vinblastine-selected multidrug-resistant variant KB-V1 cells (Akiyama et al., Genetics 11:117-126 (1985)) were kindly provided by Dr. Michael Gottesmann (National Cancer Institute). They were grown as monolayer cultures at 37° C. in 5% CO2 and maintained by regular passage in Dulbecco's minimal essential medium supplemented with 10% heat inactivated fetal bovine serum. KB-V1 cells were maintained in the presence of […] vinblastine.

[3] = test system: Human lymphoblast RPMI 8402 cells; test: MTT-microtiter plate tetrazolinium cytotoxicity assay (MTA), RPMI 8402; format: cell-based; settings: Homo sapiens, RPMI 8402, 96 h, read-out: Cytotoxicity IC50, RPMI
Experimental: as §2

[4] = molecular target: T2, calf thymus topoisomerase II (Bos taurus, UniProt F1MDU7); test: Topo II-mediated DNA cleavage assay; format: biochemical; settings: concentration relative to VM26 (= 1) producing the same cleavage on plasmid DNA in the presence of calf thymus topoisomerase II
T2 construct: from tissue; host or cells: calf thymus glands
Source text: The plasmid pET11a and the E. coli strain BL21(DE3) used for enzyme expression were purchased from Novagen. IPTG was purchased from Sigma. The ECL system used for the Western blotting analysis of bacterial lysates was from Amersham (UK). All the restriction enzymes and Vent polymerase were from New England Biolabs. Mammalian topoisomerase II was isolated from calf thymus glands according to the published procedure (Halligan et al., J. Biol. Chem. 260:2475-2482 (1985)). The single copy yeast plasmids YCpGAL1 expressing various topoisomerase I genes in JN2-134 yeast strain were a kind gift of Dr. M-A. Bjornsti (Thomas Jefferson University, Philadelphia, Pa.). All bacterial and yeast media were from Difco (Detroit, Mich.), while cell culture media were purchased from Gibco-BRL (Gaithersburg, Md.).
as §1

T2 sequence (F1MDU7 1-1532): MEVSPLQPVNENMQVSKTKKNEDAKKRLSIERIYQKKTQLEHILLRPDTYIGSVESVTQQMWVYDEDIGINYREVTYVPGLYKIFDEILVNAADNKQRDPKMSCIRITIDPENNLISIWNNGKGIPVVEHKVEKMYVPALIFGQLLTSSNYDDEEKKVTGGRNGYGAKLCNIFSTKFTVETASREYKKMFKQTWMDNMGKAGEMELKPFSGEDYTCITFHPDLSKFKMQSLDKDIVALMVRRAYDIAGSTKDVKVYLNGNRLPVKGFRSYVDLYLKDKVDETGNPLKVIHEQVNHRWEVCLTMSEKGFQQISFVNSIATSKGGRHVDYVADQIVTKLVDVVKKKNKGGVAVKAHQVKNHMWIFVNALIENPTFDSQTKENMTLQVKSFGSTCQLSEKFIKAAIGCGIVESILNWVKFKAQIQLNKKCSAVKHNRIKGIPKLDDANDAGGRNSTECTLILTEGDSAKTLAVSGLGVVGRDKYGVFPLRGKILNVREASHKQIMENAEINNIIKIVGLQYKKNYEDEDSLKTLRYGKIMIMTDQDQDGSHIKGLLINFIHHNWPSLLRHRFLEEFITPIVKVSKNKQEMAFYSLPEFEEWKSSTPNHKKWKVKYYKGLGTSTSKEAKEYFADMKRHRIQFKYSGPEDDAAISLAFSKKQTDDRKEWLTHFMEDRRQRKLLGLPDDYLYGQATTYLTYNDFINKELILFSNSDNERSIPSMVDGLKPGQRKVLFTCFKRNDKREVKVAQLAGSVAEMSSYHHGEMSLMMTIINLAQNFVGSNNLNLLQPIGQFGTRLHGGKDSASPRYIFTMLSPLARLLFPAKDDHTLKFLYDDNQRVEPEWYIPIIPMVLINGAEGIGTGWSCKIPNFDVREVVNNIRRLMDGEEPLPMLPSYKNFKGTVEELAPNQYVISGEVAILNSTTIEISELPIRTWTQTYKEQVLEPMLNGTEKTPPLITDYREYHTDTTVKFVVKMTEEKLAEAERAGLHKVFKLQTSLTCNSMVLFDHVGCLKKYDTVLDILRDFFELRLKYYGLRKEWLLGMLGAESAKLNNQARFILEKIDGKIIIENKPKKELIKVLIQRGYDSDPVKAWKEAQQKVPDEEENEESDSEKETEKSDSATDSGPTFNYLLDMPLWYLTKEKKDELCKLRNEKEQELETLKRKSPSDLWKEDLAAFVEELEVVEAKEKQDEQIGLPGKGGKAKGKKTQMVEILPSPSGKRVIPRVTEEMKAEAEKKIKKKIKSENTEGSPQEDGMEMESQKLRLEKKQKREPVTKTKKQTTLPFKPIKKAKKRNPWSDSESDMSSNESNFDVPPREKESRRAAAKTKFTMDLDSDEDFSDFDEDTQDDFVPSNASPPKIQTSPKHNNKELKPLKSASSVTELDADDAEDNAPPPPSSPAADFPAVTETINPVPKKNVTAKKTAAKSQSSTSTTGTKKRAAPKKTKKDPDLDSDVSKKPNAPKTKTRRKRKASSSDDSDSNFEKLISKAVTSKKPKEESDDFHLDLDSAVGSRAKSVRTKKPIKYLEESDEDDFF

SMILES | Topo I-mediated DNA cleavage (REC, Relative Effective Concentration) [1] | IC50 [2] | IC50 [3] | Topo II-mediated DNA cleavage (REC, Relative Effective Concentration) [4]
COc1cc2cc3c(ccc4cc(OC)c(OC)cc43)nc2cc1OC [Compound 14a, 2,3,9,10-Tetramethoxybenz[a]acridine] | 1000 | 2.9 µM | 2.9 µM | > 1000
COc1cc2c(cc1OC)-c1cc3cc(OC)c(OC)cc3[n+](C)c1CC2 [Compound 15a, 2,3,9,10-Tetramethoxy-7-methyl-5,6-dihydrobenz[a]acridinium methosulfate] | 100 | > 24 µM | > 24 µM | > 1000
COc1cc2cc3c(ccc4ccccc43)nc2cc1OC [Compound 14c, 9,10-Dimethoxybenz[a]acridine] | > 1000 | 31.1 µM | 10.4 µM | > 1000
COc1cc2c(cc1OC)-c1nc3cc(OC)c(OC)cc3c(C)c1CC2 [Compound 6, 2,3,9,10-Tetramethoxy-7-methyl-5,6-dihydrobenz[c]acridine] | > 1000 | > 137 µM | > 137 µM | > 1000
COc1cc2cc3c(nc2cc1OC)CCc1c-3ccc(OC)c1OC [Compound 13f, 5,6-Dihydro-3,4,9,10-tetramethoxybenz[a]acridine] | 100 | 14.2 µM | 14.2 µM | > 1000
COc1cc2ccc3nc4cc5c(cc4cc3c2cc1OC)OCO5 [Compound 14b, 2,3,-Dimethoxy-9,10-methylenedioxybenz[a]acridine] | 1000 | 7.5 µM | 4.5 µM | > 1000
COc1cc2cc3c(nc2cc1OC)CCc1cc(Cl)ccc1-3 [Compound 13j, 3-Chloro-9,10-dimethoxy-5,6-dihydrobenz[a]acridine] | 10 | 15.4 µM | 9.2 µM | > 1000
COc1cc2c[n+](C)c3c4cc5c(cc4ccc3c2cc1OC)OCO5 [Nitidine, reference compound] | 0.1 | 3.9 µM | 0.4 µM | 5
Oc1cc2c(cc1O)-c1cc3cc(O)c(O)cc3nc1CC2 [Compound 13g, 2,3,9,10-tetrahydroxy-5,6-dihydrobenz[a]acridine] | 1.0 | 13.6 µM | 20.3 µM | > 1000
